These results are taken from US10675284B2, “Treatment of B-cell malignancies by a combination JAK and PI3K inhibitors” (Incyte Corporation, priority 2014, dated 2020).

In test [1] the target is human JAK1 (a.a. 837-1142) (Homo sapiens, UniProt P23458). Description: In vitro JAK kinase assay (HTRF), JAK1. The test is classed as biochemical. On the technique in general: Time-resolved FRET reads energy transfer from a long-lived donor to a nearby acceptor.
Test [2] deals with human JAK2 (a.a. 828-1132) (Homo sapiens (Human), UniProt O60674). As to the kind of experiment: In vitro JAK kinase assay (HTRF), JAK2. The note with it: IC50 ratio, 1 mM ATP. The test is classed as biochemical.
human JAK2 (a.a. 828-1132), sequence (O60674 828-1132): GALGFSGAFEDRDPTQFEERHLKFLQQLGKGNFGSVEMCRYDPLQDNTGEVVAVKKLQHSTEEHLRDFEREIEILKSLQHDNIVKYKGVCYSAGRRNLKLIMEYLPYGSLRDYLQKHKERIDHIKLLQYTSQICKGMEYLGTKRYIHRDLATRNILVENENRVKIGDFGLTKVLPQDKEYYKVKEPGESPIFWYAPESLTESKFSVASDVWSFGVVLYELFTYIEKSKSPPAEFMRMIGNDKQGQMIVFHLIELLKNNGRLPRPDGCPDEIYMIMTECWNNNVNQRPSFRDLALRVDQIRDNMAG
The subject of the next test is Pfeiffer cells. Description: Western blot analysis of Pfeiffer cells. The test is classed as cell-based, human. The note with it: 24 hours. The method, then:
The following materials and methods were used in the Western blot analysis infra. Cells (5 million) were lysed in a 300 μl volume of lysis buffer. Soluble fractions were collected by centrifugation. 25 μl of cell lysate were loaded into Tris-Glycine polyacrylamide gels and subjected to electrophoresis. The proteins were transferred into nitrocellulose membrane and probed with antibodies from Cell Signaling Technology for the following proteins: phospho-Stat3 Y705, phospho-Akt 5473, pim1, pim2, pim3, c-myc, phospho-p70S6K, phosho-S6, phospho-Bad S112 and actin.
IL6 and IL10 promote cell survival through the expression of Pim2, which is dependent on JAK1 activity.
Extracts were analyzed by Western blot for pAKT and pSTAT3.
Background: A western blot detects proteins with antibodies after separation by electrophoresis.

SMILES strings stand for the structures. Like-named read-outs stand apart in the source and are kept apart here. Some results are limits rather than exact numbers.

human JAK1 (a.a. 837-1142), sequence (P23458 whole entry, looked up): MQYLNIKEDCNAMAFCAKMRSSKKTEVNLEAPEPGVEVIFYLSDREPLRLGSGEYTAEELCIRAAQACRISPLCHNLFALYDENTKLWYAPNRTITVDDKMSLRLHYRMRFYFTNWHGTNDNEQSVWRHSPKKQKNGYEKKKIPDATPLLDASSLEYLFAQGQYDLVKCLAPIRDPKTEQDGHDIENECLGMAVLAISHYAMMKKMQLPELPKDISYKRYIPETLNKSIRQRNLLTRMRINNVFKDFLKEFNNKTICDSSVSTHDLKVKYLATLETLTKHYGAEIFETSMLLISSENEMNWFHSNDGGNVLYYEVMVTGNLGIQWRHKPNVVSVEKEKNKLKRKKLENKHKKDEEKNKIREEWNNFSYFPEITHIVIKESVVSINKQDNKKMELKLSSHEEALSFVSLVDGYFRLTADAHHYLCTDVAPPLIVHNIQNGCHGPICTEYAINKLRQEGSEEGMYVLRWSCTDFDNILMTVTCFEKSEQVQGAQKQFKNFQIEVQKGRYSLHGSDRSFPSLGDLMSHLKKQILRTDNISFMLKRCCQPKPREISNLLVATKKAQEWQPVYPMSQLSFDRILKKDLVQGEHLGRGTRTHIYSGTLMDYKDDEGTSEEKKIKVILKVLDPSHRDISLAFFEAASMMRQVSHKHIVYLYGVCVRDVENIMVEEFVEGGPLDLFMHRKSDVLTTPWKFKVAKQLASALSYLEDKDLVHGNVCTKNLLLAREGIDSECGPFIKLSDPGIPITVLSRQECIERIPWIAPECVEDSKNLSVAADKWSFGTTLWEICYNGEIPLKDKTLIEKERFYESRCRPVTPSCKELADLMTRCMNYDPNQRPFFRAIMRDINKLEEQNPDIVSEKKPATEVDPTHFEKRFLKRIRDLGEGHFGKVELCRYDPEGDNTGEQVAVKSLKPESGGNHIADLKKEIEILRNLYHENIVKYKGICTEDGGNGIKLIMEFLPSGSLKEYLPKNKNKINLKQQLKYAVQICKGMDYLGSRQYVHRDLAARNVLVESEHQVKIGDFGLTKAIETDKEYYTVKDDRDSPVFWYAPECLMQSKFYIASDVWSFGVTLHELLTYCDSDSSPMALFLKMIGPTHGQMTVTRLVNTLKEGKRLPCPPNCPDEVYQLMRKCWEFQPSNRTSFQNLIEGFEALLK

As usually defined, the IC50 is the concentration that gives 50% inhibition. The molecule `N#CCC(C1CCN(c2cccc(Cl)n2)C1)n1cc(-c2ncnc3[nH]ccc23)cn1` (single isomer, unassigned) [Compound 3, 3-[1-(6-chloropyridin-2-yl)pyrrolidin-3-yl]-3-[4-(7H-pyrrolo[2,3-d]pyrimidin-4-yl)-1H-pyrazol-1-yl]propanenitrile] came in with an IC50 in test [1] of under 0.01 µM. Further, the JAK2/JAK1 in test [2] is over 10.
As for `C[C@@H](O)c1nc2cnc3ccsc3c2n1[C@H]1CC[C@H](CC#N)OC1` [Compound 1, ((2R,5S)-5-{2-[(1R)-1-hydroxyethyl]-1H-imidazo[4,5-d]thieno[3,2-b]pyridin-1-yl}tetrahydro-2H-pyran-2-yl)acetonitrile], the IC50 in test [1] (1 mM ATP, read-out: JAK1 IC50) was under 0.1 µM. Moreover, the JAK2/JAK1 in test [2] is on record as over 10.
With `N#CCC(C1CCN(c2nc3cccnc3o2)C1)n1cc(-c2ncnc3[nH]ccc23)cn1` (stereo not shown) [Compound 4, 3-(1-[1,3]oxazolo[5,4-b]pyridin-2-ylpyrrolidin-3-yl)-3-[4-(7H-pyrrolo[2,3-d]pyrimidin-4-yl)-1H-pyrazol-1-yl]propanenitrile], in test [1] (1 mM ATP, read-out: JAK1 IC50), the IC50 is under 0.01 µM. In test [2], the JAK2/JAK1 is given as over 10.
On to `N#CCC(CN1CCN(C(=O)c2ccc(C#N)cc2F)CC1)n1cc(-c2ncnc3[nH]ccc23)cn1` (stereo not shown) [Compound 5, 4-[(4-{3-cyano-2-[4-(7H-pyrrolo[2,3-d]pyrimidin-4-yl)-1H-pyrazol-1-yl]propyl}piperazin-1-yl)carbonyl]-3-fluorobenzonitrile], for which the IC50 in test [1] (1 mM ATP, read-out: JAK1 IC50) is under 0.01 µM. The JAK2/JAK1 in test [2] is over 10.
Take `N#CCC(CN1CCN(C(=O)c2ccc(C#N)cc2F)CC1)n1ccc(-c2ncnc3[nH]ccc23)c1` (stereo not shown) [Compound 6, 4-[(4-{3-cyano-2-[3-(7H-pyrrolo[2,3-d]pyrimidin-4-yl)-1H-pyrrol-1-yl]propyl}piperazin-1-yl)carbonyl]-3-fluorobenzonitrile]: the IC50 in test [1] (1 mM ATP, read-out: JAK1 IC50) was under 0.01 µM. Moreover, the JAK2/JAK1 in test [2] is over 10.
Taken in the same sequence, the figures for `N#CCC1(n2cc(-c3ncnc4[nH]ccc34)cn2)CN(C2CCN(C(=O)Nc3ccc(F)cc3C(F)(F)F)CC2)C1` [Compound 8, 4-{3-(cyanomethyl)-3-[4-(7H-pyrrolo[2,3-d]pyrimidin-4-yl)-1H-pyrazol-1-yl]azetidin-1-yl}-N-[4-fluoro-2-(trifluoromethyl)phenyl]piperidine-1-carboxamide] were under 0.01 µM and over 10.
Taken in the same sequence, the figures for `N#CCC1(n2cc(-c3ncnc4[nH]ccc34)cn2)CN(C2CCN(C(=O)c3ccnc(C(F)(F)F)n3)CC2)C1` [Compound 9, [3-[4-(7H-pyrrolo[2,3-d]pyrimidin-4-yl)-1H-pyrazol-1-yl]-1-(1-{[2-(trifluoromethyl)pyrimidin-4-yl]carbonyl}piperidin-4-yl)azetidin-3-yl]acetonitrile] were under 0.01 µM and over 10.
With `N#CC[C@]1(n2cc(-c3ncnc4[nH]ccc34)cn2)C[C@H](N2CCN(C(=O)c3ccnc(C(F)(F)F)n3)CC2)C1` [Compound 10, [trans-1-[4-(7H-pyrrolo[2,3-d]pyrimidin-4-yl)-1H-pyrazol-1-yl]-3-(4-{[2-(trifluoromethyl)pyrimidin-4-yl]carbonyl}piperazin-1-yl)cyclobutyl]acetonitrile], the IC50 in test [1] (1 mM ATP, read-out: JAK1 IC50) was under 0.01 µM. In addition, the JAK2/JAK1 in test [2] is over 10.
For the molecule `N#CC[C@]1(n2cc(-c3ncnc4[nH]ccc34)cn2)C[C@H](N2CCC(Oc3cc(CN4CC(O)C4)cc(C(F)(F)F)n3)CC2)C1` [Compound 11, {trans-3-(4-{[4-[(3-hydroxyazetidin-1-yl)methyl]-6-(trifluoromethyl)pyridin-2-yl]oxy}piperidin-1-yl)-1-[4-(7H-pyrrolo[2,3-d]pyrimidin-4-yl)-1H-pyrazol-1-yl]cyclobutyl}acetonitrile], the IC50 in test [1] (1 mM ATP, read-out: JAK1 IC50) is under 0.01 µM.
Turning to `N#CC[C@]1(n2cc(-c3ncnc4[nH]ccc34)cn2)C[C@H](N2CCC(Oc3cc(CN4CCC[C@H]4CO)cc(C(F)(F)F)n3)CC2)C1` [Compound 12, {trans-3-(4-{[4-{[(2S)-2-(hydroxymethyl)pyrrolidin-1-yl]methyl}-6-(trifluoromethyl)pyridin-2-yl]oxy}piperidin-1-yl)-1-[4-(7H-pyrrolo[2,3-d]pyrimidin-4-yl)-1H-pyrazol-1-yl]cyclobutyl}acetonitrile], in test [1] (1 mM ATP, read-out: JAK1 IC50), the half-maximal inhibitory concentration (IC50) was under 0.01 µM. In addition, the JAK2/JAK1 in test [2] is over 10.
Consider `N#CC[C@]1(n2cc(-c3ncnc4[nH]ccc34)cn2)C[C@H](N2CCC(Oc3cc(CN4CCC[C@@H]4CO)cc(C(F)(F)F)n3)CC2)C1` [Compound 13, {trans-3-(4-{[4-{[(2R)-2-(hydroxymethyl)pyrrolidin-1-yl]methyl}-6-(trifluoromethyl)pyridin-2-yl]oxy}piperidin-1-yl)-1-[4-(7H-pyrrolo[2,3-d]pyrimidin-4-yl)-1H-pyrazol-1-yl]cyclobutyl}acetonitrile], for which, in test [1] (1 mM ATP, read-out: JAK1 IC50), the IC50 is under 0.01 µM. Further, the JAK2/JAK1 in test [2] is listed as over 10.
On to `N#CCC1(n2cc(-c3ncnc4[nH]ccc34)cn2)CN([C@H]2CC[C@@H](Oc3cc(CCO)nc(C(F)(F)F)n3)CC2)C1` [Compound 18, {1-(cis-4-{[6-(2-hydroxyethyl)-2-(trifluoromethyl)pyrimidin-4-yl]oxy}cyclohexyl)-3-[4-(7H-pyrrolo[2,3-d]pyrimidin-4-yl)-1H-pyrazol-1-yl]azetidin-3-yl}acetonitrile], for which the half-maximal inhibitory concentration (IC50) in test [1] (1 mM ATP, read-out: JAK1 IC50) is under 0.01 µM. In test [2], the JAK2/JAK1 is over 10.
For the molecule `CCNCc1cc(O[C@H]2CC[C@@H](N3CC(CC#N)(n4cc(-c5ncnc6[nH]ccc56)cn4)C3)CC2)nc(C(F)(F)F)c1` [Compound 19, {1-(cis-4-{[4-[(ethylamino)methyl]-6-(trifluoromethyl)pyridin-2-yl]oxy}cyclohexyl)-3-[4-(7H-pyrrolo[2,3-d]pyrimidin-4-yl)-1H-pyrazol-1-yl]azetidin-3-yl}acetonitrile], the IC50 in test [1] (1 mM ATP, read-out: JAK1 IC50) is under 0.01 µM. The JAK2/JAK1 in test [2] is on record as over 10.
As to `CC(C)(O)c1cc(O[C@H]2CC[C@@H](N3CC(CC#N)(n4cc(-c5ncnc6[nH]ccc56)cn4)C3)CC2)nc(C(F)(F)F)c1` [Compound 20, {1-(cis-4-{[4-(1-hydroxy-1-methylethyl)-6-(trifluoromethyl)pyridin-2-yl]oxy}cyclohexyl)-3-[4-(7H-pyrrolo[2,3-d]pyrimidin-4-yl)-1H-pyrazol-1-yl]azetidin-3-yl}acetonitrile], the IC50 in test [1] (1 mM ATP, read-out: JAK1 IC50) was under 0.01 µM. The JAK2/JAK1 in test [2] is given as over 10.
As to `N#CCC1(n2cc(-c3ncnc4[nH]ccc34)cn2)CN([C@H]2CC[C@@H](Oc3cc(CN4CC[C@@H](O)C4)cc(C(F)(F)F)n3)CC2)C1` [Compound 21, {1-(cis-4-{[4-{[(3R)-3-hydroxypyrrolidin-1-yl]methyl}-6-(trifluoromethyl)pyridin-2-yl]oxy}cyclohexyl)-3-[4-(7H-pyrrolo[2,3-d]pyrimidin-4-yl)-1H-pyrazol-1-yl]azetidin-3-yl}acetonitrile], in test [1] (1 mM ATP, read-out: JAK1 IC50), the IC50 was under 0.01 µM. Also, the JAK2/JAK1 in test [2] was over 10.
As for `N#CCC1(n2cc(-c3ncnc4[nH]ccc34)cn2)CN([C@H]2CC[C@@H](Oc3cc(CN4CC[C@H](O)C4)cc(C(F)(F)F)n3)CC2)C1` [Compound 22, {1-(cis-4-{[4-{[(3S)-3-hydroxypyrrolidin-1-yl]methyl}-6-(trifluoromethyl)pyridin-2-yl]oxy}cyclohexyl)-3-[4-(7H-pyrrolo[2,3-d]pyrimidin-4-yl)-1H-pyrazol-1-yl]azetidin-3-yl}acetonitrile], in test [1] (1 mM ATP, read-out: JAK1 IC50), the IC50 was under 0.01 µM. Also, in test [2], the JAK2/JAK1 was over 10.
On the same counts, the results for `C[C@@H](CO)NCc1cc(OC2CCN([C@H]3C[C@](CC#N)(n4cc(-c5ncnc6[nH]ccc56)cn4)C3)CC2)nc(C(F)(F)F)c1` [Compound 23, {trans-3-(4-{[4-({[(1S)-2-hydroxy-1-methylethyl]amino}methyl)-6-(trifluoromethyl)pyridin-2-yl]oxy}piperidin-1-yl)-1-[4-(7H-pyrrolo[2,3-d]pyrimidin-4-yl)-1H-pyrazol-1-yl]cyclobutyl}acetonitrile] are under 0.01 µM and over 10.
`C[C@@H](O)CNCc1cc(OC2CCN([C@H]3C[C@](CC#N)(n4cc(-c5ncnc6[nH]ccc56)cn4)C3)CC2)nc(C(F)(F)F)c1` [Compound 24, {trans-3-(4-{[4-({[(2R)-2-hydroxypropyl]amino}methyl)-6-(trifluoromethyl)pyridin-2-yl]oxy}piperidin-1-yl)-1-[4-(7H-pyrrolo[2,3-d]pyrimidin-4-yl)-1H-pyrazol-1-yl]cyclobutyl}acetonitrile]: the IC50 in test [1] (1 mM ATP, read-out: JAK1 IC50) was under 0.01 µM. In addition, in test [2], the JAK2/JAK1 is on record as over 10.
For `C[C@H](O)CNCc1cc(OC2CCN([C@H]3C[C@](CC#N)(n4cc(-c5ncnc6[nH]ccc56)cn4)C3)CC2)nc(C(F)(F)F)c1` [Compound 25, {trans-3-(4-{[4-({[(2S)-2-hydroxypropyl]amino}methyl)-6-(trifluoromethyl)pyridin-2-yl]oxy}piperidin-1-yl)-1-[4-(7H-pyrrolo[2,3-d]pyrimidin-4-yl)-1H-pyrazol-1-yl]cyclobutyl}acetonitrile], the IC50 in test [1] (1 mM ATP, read-out: JAK1 IC50) is under 0.01 µM. For the same molecule, the JAK2/JAK1 in test [2] is over 10.
On the same counts, the results for `N#CC[C@]1(n2cc(-c3ncnc4[nH]ccc34)cn2)C[C@H](N2CCC(Oc3cc(CCO)cc(C(F)(F)F)n3)CC2)C1` [Compound 26, {trans-3-(4-{[4-(2-hydroxyethyl)-6-(trifluoromethyl)pyridin-2-yl]oxy}piperidin-1-yl)-1-[4-(7H-pyrrolo[2,3-d]pyrimidin-4-yl)-1H-pyrazol-1-yl]cyclobutyl}acetonitrile] are under 0.01 µM and over 10.
In the case of `N#CC[C@H](C1CCCC1)n1cc(-c2ncnc3[nH]ccc23)cn1` [ruxolitinib, (3R)-3-cyclopentyl-3-[4-(7H-pyrrolo[2,3-d]pyrimidin-4-yl)-1H-pyrazol-1-yl]propanenitrile, reference compound], the “IL10-induced expression of Pim2” value with Pfeiffer cells is listed as “blocked”.
